# Earlier results as cited in US20110208437A1, “METHOD AND APPARATUS FOR I[…] SAFE AND E[…] REGIMEN” (THE MCLEAN HOSPITAL CORPORATION, priority 2008, published 2011).
# Legend:
# [1] = oral administration of the same mg/kg dose
# [2] = biological target: dopamine reuptake (Homo sapiens, UniProt Q01959)
# [3] = 2.5 mg Focalin same therapeutic benefit as 5.0 mg Ritalin
# [4] = clinical trials, adults and children
# Sequence of dopamine reuptake (Q01959 whole entry): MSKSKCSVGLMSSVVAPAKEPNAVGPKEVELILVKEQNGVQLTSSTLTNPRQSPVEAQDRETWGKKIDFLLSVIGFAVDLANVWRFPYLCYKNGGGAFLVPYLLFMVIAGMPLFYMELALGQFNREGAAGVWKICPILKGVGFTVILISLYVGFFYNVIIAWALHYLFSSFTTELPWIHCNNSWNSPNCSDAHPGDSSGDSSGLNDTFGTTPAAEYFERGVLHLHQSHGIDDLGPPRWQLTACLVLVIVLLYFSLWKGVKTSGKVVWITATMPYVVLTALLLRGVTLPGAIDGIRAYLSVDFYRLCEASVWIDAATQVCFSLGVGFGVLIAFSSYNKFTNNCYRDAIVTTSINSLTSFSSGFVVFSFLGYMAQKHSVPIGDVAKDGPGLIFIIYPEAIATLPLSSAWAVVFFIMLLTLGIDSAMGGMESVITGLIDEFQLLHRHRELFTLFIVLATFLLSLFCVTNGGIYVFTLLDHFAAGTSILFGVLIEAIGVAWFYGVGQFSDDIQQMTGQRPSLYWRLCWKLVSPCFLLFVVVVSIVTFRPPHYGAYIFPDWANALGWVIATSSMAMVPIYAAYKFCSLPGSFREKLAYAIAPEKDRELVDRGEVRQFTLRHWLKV
compound,measurement,setting,value
"COC(=O)C(c1ccccc1)C1CCCCN1 (stereo not shown) [IR-MPH, methylphenidate]",differences between individuals in peak blood levels (Cmax),[1],2-3 fold
CC(NC(C)(C)C)C(=O)c1cccc(Cl)c1 (stereo not shown) [Bupropion],potency as inhibitor of dopamine reuptake relative to norepinephrine reuptake,[2],twice as potent
COC(=O)[C@H](c1ccccc1)[C@H]1CCCCN1 [Focalin],potency relative to methylphenidate,[3],twice as potent
CNCC[C@@H](Oc1ccccc1C)c1ccccc1 [Atomoxetine],coverage of symptoms associated with ADHD,[4],24 h
